Usually Ki stands for a measure of affinity in units of concentration, obtained from inhibition or displacement. High values mean a looser hold on the target, low ones a stronger hold on the target.

Where only a bound is given, the exact number is not on record here.

This experiment deals with T1, Peroxisome proliferator-activated receptor gamma (Homo sapiens, UniProt P37231).
T1 sequence (P37231 whole entry): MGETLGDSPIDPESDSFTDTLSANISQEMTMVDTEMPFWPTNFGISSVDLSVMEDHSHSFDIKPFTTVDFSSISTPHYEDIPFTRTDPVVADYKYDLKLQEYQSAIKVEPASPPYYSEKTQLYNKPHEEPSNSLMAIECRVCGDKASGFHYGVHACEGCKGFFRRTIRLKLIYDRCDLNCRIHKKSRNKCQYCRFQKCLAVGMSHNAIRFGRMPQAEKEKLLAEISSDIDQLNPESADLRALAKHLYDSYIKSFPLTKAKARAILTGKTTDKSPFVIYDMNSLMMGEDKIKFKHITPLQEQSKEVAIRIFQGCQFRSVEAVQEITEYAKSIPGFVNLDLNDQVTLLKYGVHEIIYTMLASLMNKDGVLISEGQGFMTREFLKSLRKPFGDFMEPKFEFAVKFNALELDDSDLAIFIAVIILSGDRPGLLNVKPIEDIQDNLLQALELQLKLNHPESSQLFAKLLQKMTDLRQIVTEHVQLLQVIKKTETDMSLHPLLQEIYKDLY
As to the kind of experiment: Pharmacological In Vitro Assay. As to conditions: pH 8.2; 4 °C. On the procedure: Binding assays were performed in 96-well plate format, using a classical filtration assay with a human full length PPARγ construct (GST-PPAR LBD (25 μg/mL)) expressed in bacteria with some modifications regarding the conditionsof the experiments. The membrane-associated PPARγ was used as the biological source as previously described. Binding buffer consisted of 10 mM Tris/HCl, pH 8.2, containing 50 mM KCl and 1 mM dithiothreitol. Membrane preparations (5 μg/mL) were incubated for 180 min at 4°C in the presence of [3H]rosiglitazone (BRL49653, Amersham) (4 nM) and the tested compounds. Nonspecific binding was defined using an excess of unlabeled rosiglitazone (10 μM). Incubation was terminated by the addition of ice-cold 50 mM Tris/HCl buffer pH 7.4, followed by rapid filtrationunder reduced pressure through Whatman GF/C filter plates presoaked with ice-cold buffer, followed by three successive washes with the same buffer. Radioactivity was measured in a TopCount apparatus (Packard).
With `CCCCCCCCOc1nc2ccccc2cc1C(O)CC#CCCCC(=O)OC` (centres undefined) [8-Hydroxy-8-(2-octyloxy-quinolin-3-yl)-oct-5-ynoic acid methyl ester (8c)], the Ki was greater than 10 µM.
Regarding `CCCCCOc1nc2ccccc2cc1C(O)CC#CCCCC(=O)OC` (centres undefined) [8-Hydroxy-8-(2-pentyloxy-quinolin-3-yl)-oct-5-ynoic acid methyl ester], the Ki is greater than 10 µM.
`COCCCOc1nc2ccccc2cc1C(O)CC#CCCCC(=O)OC` (centres undefined) [8-Hydroxy-8-[2-(3-methoxy-propoxy)-quinolin-3-yl]-oct-5-ynoic acid methyl ester (8d)] returned a Ki greater than 10 µM.
Next, `COc1nc2ccccc2cc1C(O)CC#CCCCC(=O)O` (centres undefined) [Sodium 8-hydroxy-8-(2-methoxy-quinolin-3-yl)-oct-5-ynoate (9b)]: greater than 10 µM; `CCCCCOc1nc2c(ccc3ccccc32)cc1C(O)CC#CCCCC(=O)O` (centres undefined) [Sodium 8-hydroxy-8-(2-pentyloxy-benzo[h]quinolin-3-yl)-oct-5-ynoate (27b)]: greater than 10 µM; `CCCCCOc1nc2ccccc2cc1C(O)CC#CCCCC(=O)NCCO` (centres undefined) [8-Hydroxy-8-(2-pentyloxy-quinolin-3-yl)-oct-5-ynoic acid (2-hydroxy-ethyl)-amide (14a)]: greater than 10 µM.
For the molecule `CCCCCOc1nc2ccccc2cc1C(O)CC#CCOCC(=O)O` (centres undefined) [Sodium [5-hydroxy-5-(2-pentyloxy-quinolin-3-yl)-pent-2-ynyloxy]-acetate (18a)], the affinity, expressed as Ki, was 1.93 µM.
On to `CCCCCOc1nc2ccc(OC)cc2cc1C(O)CC#CCCCC(=O)O` (centres undefined) [Sodium 8-hydroxy-8-(6-methoxy-2-pentyloxy-quinolin-3-yl)-oct-5-ynoate (27a)], for which affinity was put at a Ki of 0.583 µM.
In the case of `CCCCCCCCOc1nc2ccccc2cc1C(O)CC#CCCCC(=O)O` (centres undefined) [Sodium 8-hydroxy-8-(2-octyloxy-quinolin-3-yl)-oct-5-ynoate (9c)], affinity was put at a Ki of 0.378 µM. This Ki is about 1.5-fold lower than that of the molecule before.
The molecule `COc1nc2ccccc2cc1C(O)CC#CCOCC(=O)O` (centres undefined) [Sodium [5-hydroxy-5-(2-methoxy-quinolin-3-yl)-pent-2-ynyloxy]-acetate (18b)] had a Ki of 3.81 µM.
The molecule `COC(=O)CCCC#CCC(O)c1cc2ccccc2nc1OCCCC(F)(F)F` (centres undefined) [8-Hydroxy-8-[2-(4,4,4-trifluoro-butoxy)-quinolin-3-yl]-oct-5-ynoic acid methyl ester (8e)] returned a Ki greater than 10 µM.
Next, `O=C(O)CCCC#CCC(O)c1cc2ccccc2nc1OCCCC(F)(F)F` (centres undefined) [Sodium 8-hydroxy-8-[2-(4,4,4-trifluoro-butoxy)-quinolin-3-yl]-oct-5-ynoate (9e)]: greater than 10 µM; `CCCCCOc1nc2c(ccc3ccccc32)cc1C(O)CC#CCCCC(=O)OC` (centres undefined) [8-Hydroxy-8-(2-pentyloxy-benzo[h]quinolin-3-yl)-oct-5-ynoic acid methyl ester (26b)]: greater than 10 µM.
Molecule `COCCCOc1nc2ccccc2cc1C(O)CC#CCCCC(=O)O` (centres undefined) [Sodium 8-hydroxy-8-[2-(3-methoxy-propoxy)-quinolin-3-yl]-oct-5-ynoate (9d)] gave an inhibitory constant (Ki) greater than 10 µM.

Values taken from BindingDB's records for doi:10.3109/14756360903468171 (2010).
